# Reference: patent US4996230A, “Leukotriene antagonists” (Eli Lilly and Company, priority 1990, dated 1991)
# Target: T1, leukotriene B4 specific receptor on the membrane of human neutrophils (Homo sapiens, UniProt Q15722)
# T1 construct: a specific receptor on the membrane of human neutrophils; endogenous in cells; host or cells: human peripheral blood neutrophils (buffy coats of two blood donors; intact cells, at least 90% neutrophils)
# Assay: Inhibition of Binding of ^3H-LTB4 to Peripheral Human Neutrophils (radio-ligand binding assay)
# Settings: 0.1-0.2 nM ^3H-LTB4, 10 minutes at 4° C., read-out: LTB4 Binding Inhibition (percent inhibition); for inhibition at 1 µM: Drug Concentration 10^-6 M; for inhibition at 0.1 µM: Drug Concentration 10^-7 M; for inhibition at 10 µM: Drug Concentration 10^-5 M
# Description: Inhibition of Binding of ^3 H-LTB4 to Peripheral Human Neutrophils
# The effectiveness of compounds to inhibit the binding of leukotriene B4 to a specific receptor on the membrane of human neutrophils was measured by using an adaptation of a radio-ligand binding assay developed by Goldman and Goetzl, J. Immunol., 129, 1600 (1982). Other investigators have developed similar assays (see, e.g., Kreisle, et al., J. Exp. Med., 157, 628 (1983) and Lin, et al., Prostaglandins, 28, 837 (1984)).
# Cells used in the assay were isolated by standard techniques of centrifugation on Ficoll-Hypaque, dextran 70 sedimentation and hypotonic lysis. The following procedure was used. Freshly-prepared buffy coat layers from two individuals were obtained from a local blood donor center. The cells were mixed and diluted to 484 ml with phosphate buffered saline containing heparin (10 units/ml) and heat-inactivated calf serum (5%). This was divided into 20 ml aliquots and the aliquots layered on top of Ficoll-Paque (12 ml). The material was then centrifuged at 500 g for 40 minutes at room temperature. The resulting upper layer of platelets and mononuclear cells was discarded. The lower layer containing erythrocytes and neutrophils was retained. Buffer was added (1 ml per 4 ml of lower layer) and the suspension mixed. For each milliliter of this mixture, 0.33 ml of 6% Macrodex was added. After stirring, the cells were allowed to sediment for 1 hour at 37° C. The resulting erythrocyte pellet was discarded and the neutrophil enriched supernatant fluid centrifuged at 500 g for 10 minutes at 4° C. Erythrocytes still present in this cell pellet were lysed by incubating the cells with 5-8 ml ice-cold distilled water for 30-45 seconds. Subsequently, the volume was made up to 50 ml by addition of ice-cold buffer and the cells resuspended. The suspension was then centrifuged at 300 g for 10 minutes at 4° C. The cells were finally resuspended at a cell density of 2×10^7 cells/ml in the assay buffer. This buffer consisted of Hanks' balanced salt solution and 0.1% ovalbumin (pH 7.3).
# The amount of bound ^3 H-LTB4 was then measured and compared with the amount bound in the absence of test compound. The assay was carried out in microcentrifuge tubes by adding first 10 μl test compound dissolved in DMSO, followed by adding 20 μl ^3 H-LTB4 diluted in assay buffer, and finally adding 500 μl of the cell suspension. At the end of the 10 minutes incubation, 300 μl of a mixture of dibutyl and dinonyl phthalate (7:2) were added and the tubes centrifuged for 2 minutes in a microcentrifuge. The radioactivity bound to the cell pellet was measured by scintillation spectroscopy. Appropriate corrections for nonspecific bonding of ^3 H-LTB4 were made.
# T1 sequence (Q15722 whole entry): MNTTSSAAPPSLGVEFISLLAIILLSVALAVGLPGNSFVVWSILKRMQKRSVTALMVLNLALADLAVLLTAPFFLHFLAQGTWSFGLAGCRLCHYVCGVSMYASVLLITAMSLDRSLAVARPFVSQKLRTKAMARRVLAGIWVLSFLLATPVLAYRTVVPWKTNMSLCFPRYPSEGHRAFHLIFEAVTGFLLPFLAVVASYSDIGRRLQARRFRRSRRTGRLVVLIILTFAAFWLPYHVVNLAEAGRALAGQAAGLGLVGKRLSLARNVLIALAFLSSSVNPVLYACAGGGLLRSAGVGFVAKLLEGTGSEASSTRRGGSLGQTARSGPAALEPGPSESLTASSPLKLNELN
inhibition at 1 µM [%],inhibition at 0.1 µM [%],inhibition at 10 µM [%],SMILES
25,2,,"CCCCCCCCCCOc1cc2oc3c(C(=O)O)cccc3c(=O)c2cc1CCC(=O)O [Example 1, 5-Carboxy-3-(decyloxy)-9-oxo-9H-xanthene-2-propanoic acid]"
27,-7,,"CCCCCCCCCCOc1ccc2c(=O)c3cccc(C(=O)O)c3oc2c1CCC(=O)O [Example 2, 5-Carboxy-3-(decyloxy)-9-oxo-9H-xanthene-4-propanoic acid]"
23,-4,,"CCCCCCCCCCOc1cc2oc3ccc(C(=O)O)cc3c(=O)c2cc1CCC(=O)O [Example 3, 7-Carboxy-3-decyloxy-9-oxo-9H-xanthene-2-propanoic acid]"
86,52,102,"CCCCCCCCCCOc1ccc2c(=O)c3cc(C(=O)O)ccc3oc2c1CCC(=O)O [Example 4, 7-Carboxy-3-(decyloxy)-9-oxo-9H-xanthene-4-propanoic acid]"
99,91,102,"COc1ccc(C=CCCCCOc2ccc3c(=O)c4cc(C(=O)O)ccc4oc3c2CCC(=O)O)cc1 [Example 6, 7-Carboxy-3-{[6-(4-methoxyphenyl)-5-hexenyl]oxy}-9-oxo-9H-xanthene-4-propanoic acid]"
103,85,106,"COc1ccc(CCCCCCOc2ccc3c(=O)c4cc(C(=O)O)ccc4oc3c2CCC(=O)O)cc1 [Example 7, 7-Carboxy-3-{[6-(4-methoxyphenyl)hexyl]oxy}-9-oxo-9H-xanthene-4-propanoic acid]"
19,-4,68,"CCCCCCCCCCOc1cc2c(cc1CCC(=O)O)C(=O)c1cc(C(=O)O)ccc1-2 [Example 8, 7-Carboxy-3-decyloxy-9-oxo-9H-fluorene-2-propanoic acid]"
